The results in this text go back to US20260049076A1, “Tertiary Amine Substituted Bicyclic Compounds Useful as T Cell Activators” (BRISTOL-MYERS SQUIBB COMPANY, priority 2022, published 2026).

SMILES strings stand for the structures.

One experiment addresses T1, human DGKα (Homo sapiens, UniProt P23743).
T1 construct: TVMV protease cleavage site (C); Hexa-His (C); made in house; host or cells: Sf9 insect cells (baculovirus)
Description: In vitro DGK inhibition assay, DGKα liposome (LIPGLO) assay. Format: biochemical. The conditions noted are these: read-out: Enzyme Inhibition DGKalpha IC50. As for the experimental part: (§1) The DGKα and DGKζ reactions were performed using either extruded liposome (DGKα and DGKζ LIPGLO assays) or detergent/lipid micelle substrate (DGKα and DGKζ assays). The reactions were carried out in 50 mM MOPS pH 7.5, 100 mM NaCl, 10 mM MgCl2, 1 μM CaCl2, and 1 mM DTT (assay buffer). The reactions using a detergent/lipid micelle substrate also contained 50 mM octyl B-D-glucopyranoside. The lipid substrate concentrations were 11 mM PS and 1 mM DAG for the detergent/lipid micelle reactions. The lipid substrate concentrations were 2 mM PS, 0.25 mM DAG, and 2.75 mM PC for the extruded liposome reactions (5 mM total lipid). The reactions were carried out in 150 μM ATP The enzyme concentrations for the DGKα and DGKζ were 5 nM
(§2) The compound inhibition studies were carried out as follows: 25 nL (ADPGLO assay) or 50 nL (LIPGLO assay) droplets of each test compound (top concentration 10 mM with 11 point, 3-fold dilution series for each compound) solubilized in DMSO were transferred to wells of a white 1536 well plate (Corning 3725). A 5 mL enzyme/lipid substrate solution at 2× final reaction concentration was prepared by combining 2.5 mL 4× enzyme solution (20 nM DGKα, or DGKζ (prepared as described below) in assay buffer) and 2.5 mL of either 4× liposome or 4× detergent/lipid micelle solution (compositions described below) and incubated at room temperature for 10 minutes. Next, 1 μL 2× enzyme/lipid substrate solution was added to wells containing the test compound and reactions were initiated with the addition of 1 μL 300 uM ATP. The reactions were allowed to proceed for 2 hr (ADPGLO assay) or 1 hr (LIPGLO assay), after which 2 μL Glo Reagent (Promega V9101) was added and incubated for 40 minutes. Next, 4 μL Kinase Detection Reagent was added and incubated for 30 minutes. Luminescence was recorded using an EnVision microplate reader. […] The compounds were evaluated at 11 concentrations to determine IC50.
(§3) The lipid composition was 5 mol % DAG (Avanti 8008110), 40 mol % PS (Avanti 840035P), and 55 mol % PC (Avanti 850457) at a total lipid concentration of 7-8 mg/mL for the liposome solution. The PC, DAG, and PS were dissolved in chloroform, combined, and dried in vacuo to a thin film. The lipids were hydrated to 20 mM in 50 mM MOPS pH 7.5, 100 mM NaCl, 5 mM MgCl2, and were freeze-thawed five times. The lipid suspension was extruded through a 100 nm polycarbonate filter 10-12 times. […] The liposome preparation was stored at 4° C. for as long as four weeks.
(§4) The lipid composition was 5 mol % DAG (Avanti 8008110), 40 mol % PS (Avanti 840035P), and 55 mol % PC (Avanti 850457) at a total lipid concentration of 15.2 mg/mL for the 4× liposome solution. The PC, DAG, and PS were dissolved in chloroform, combined, and dried in vacuo to a thin film. The lipids were hydrated to 20 mM in 50 mM MOPS pH 7.5, 100 mM NaCl, 5 mM MgCl2, and were freeze-thawed five times. The lipid suspension was extruded through a 100 nm polycarbonate filter eleven times. […] The liposome preparation was stored at 4° C. for as long as four weeks.
(§5) Human DGK-alpha-TVMV-His-pFBgate and human DGK-zeta-transcript variant-2-TVMV-His-pFBgate baculovirus samples were generated using the Bac-to-Bac baculovirus expression system (Invitrogen) according to the manufacturer's protocol. […] Baculovirus amplification was achieved using infected Sf9 cells at 1:1500 virus/cell ratios, and grown for 65 hours at 27° C. post-transfection.
(§6) The expression scale up for each protein was carried out in the Cellbag 50L WAVE-Bioreactor System 20/50 from GE Healthcare Bioscience. 12 L of 2×10^6 cells/mL Sf9 cells (Expression System, Davis, CA) grown in ESF921 insect medium (Expression System) were infected with virus stock at 1:200 virus/cell ratios, and grown for 66-68 hours at 27° C. post-infection.

The target of a further experiment is T2, human DGKζ (Homo sapiens, UniProt Q13574).
T2 construct: TVMV protease cleavage site (C); Hexa-His (C); made in house; host or cells: Sf9 insect cells (baculovirus)
T2 sequence (Q13574 with tags, fused parts or gaps isoform Q13574-4): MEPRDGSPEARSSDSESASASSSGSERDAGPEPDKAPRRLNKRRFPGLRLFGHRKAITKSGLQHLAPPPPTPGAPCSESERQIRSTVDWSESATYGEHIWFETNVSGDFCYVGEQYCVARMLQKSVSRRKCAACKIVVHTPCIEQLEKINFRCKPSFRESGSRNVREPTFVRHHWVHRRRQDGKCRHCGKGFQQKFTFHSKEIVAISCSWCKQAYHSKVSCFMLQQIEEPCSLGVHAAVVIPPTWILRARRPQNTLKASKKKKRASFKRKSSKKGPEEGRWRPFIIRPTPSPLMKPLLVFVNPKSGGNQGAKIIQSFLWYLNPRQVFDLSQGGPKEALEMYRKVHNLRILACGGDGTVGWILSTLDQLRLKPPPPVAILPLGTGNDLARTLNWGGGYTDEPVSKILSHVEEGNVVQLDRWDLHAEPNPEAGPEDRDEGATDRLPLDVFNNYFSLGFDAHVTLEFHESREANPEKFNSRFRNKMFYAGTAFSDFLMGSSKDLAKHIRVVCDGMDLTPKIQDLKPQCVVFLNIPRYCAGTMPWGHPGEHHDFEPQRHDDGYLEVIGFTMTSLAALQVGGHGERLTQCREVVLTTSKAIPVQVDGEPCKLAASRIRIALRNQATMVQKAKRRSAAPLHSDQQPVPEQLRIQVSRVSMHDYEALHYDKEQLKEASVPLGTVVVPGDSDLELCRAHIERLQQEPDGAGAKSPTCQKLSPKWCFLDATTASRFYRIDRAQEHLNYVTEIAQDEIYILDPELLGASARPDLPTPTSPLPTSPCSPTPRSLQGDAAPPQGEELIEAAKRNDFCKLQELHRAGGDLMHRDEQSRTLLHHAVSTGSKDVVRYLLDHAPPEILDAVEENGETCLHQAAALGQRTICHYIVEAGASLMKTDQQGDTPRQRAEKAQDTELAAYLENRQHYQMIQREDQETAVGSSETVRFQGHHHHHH
Description: In vitro DGK inhibition assay, DGKζ liposome (LIPGLO) assay. It counts as biochemical. As to conditions: read-out: Enzyme Inhibition DGKzeta IC50. As for the experimental part: as §1, §2, §3, §4, §5, §6

T1 sequence (P23743 with tags, fused parts or gaps): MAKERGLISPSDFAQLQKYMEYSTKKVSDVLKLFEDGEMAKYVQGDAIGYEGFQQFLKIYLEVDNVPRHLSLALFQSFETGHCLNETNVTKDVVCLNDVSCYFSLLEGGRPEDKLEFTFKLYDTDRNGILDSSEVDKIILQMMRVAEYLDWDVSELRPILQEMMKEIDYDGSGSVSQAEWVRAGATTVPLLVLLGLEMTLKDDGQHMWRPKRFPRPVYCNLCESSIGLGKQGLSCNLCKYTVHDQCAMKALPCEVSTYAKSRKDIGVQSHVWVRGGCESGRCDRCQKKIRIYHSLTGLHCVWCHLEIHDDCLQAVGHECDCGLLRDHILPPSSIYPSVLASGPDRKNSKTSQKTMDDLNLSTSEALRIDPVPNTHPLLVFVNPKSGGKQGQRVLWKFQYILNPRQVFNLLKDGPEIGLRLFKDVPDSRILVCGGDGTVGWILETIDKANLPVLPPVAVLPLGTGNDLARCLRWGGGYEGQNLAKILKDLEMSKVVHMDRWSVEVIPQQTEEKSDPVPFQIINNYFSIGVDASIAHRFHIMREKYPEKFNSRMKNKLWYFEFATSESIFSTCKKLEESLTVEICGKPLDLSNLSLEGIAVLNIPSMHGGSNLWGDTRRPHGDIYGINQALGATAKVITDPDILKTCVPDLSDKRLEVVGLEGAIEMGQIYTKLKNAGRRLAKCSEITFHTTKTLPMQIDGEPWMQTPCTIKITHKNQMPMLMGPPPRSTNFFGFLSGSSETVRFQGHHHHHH

`CN(c1cccc(-c2ccc(OC(F)(F)F)cc2)c1)c1nc(=O)n(C)c2ccc(C#N)nc12` [Example 3, 1-methyl-4-(methyl(4′-(trifluoromethoxy)-[1,1′-biphenyl]-3-yl)amino)-2-oxo-1,2-dihydropyrido[3,2-d]pyrimidine-6-carbonitrile]: the IC50 is 1.8 µM on human DGKα and above 38 µM on human DGKζ.
Take `CN(c1cccc(-c2ccc(C3CC3)cc2)c1)c1cc(=O)n(C)c2ccc(C#N)nc12` [Example 4, 8-((4′-cyclopropyl-[1,1′-biphenyl]-3-yl)(methyl)amino)-5-methyl-6-oxo-5,6-dihydro-1,5-naphthyridine-2-carbonitrile]: the IC50 at human DGKα was 0.049 µM; at human DGKζ it was above 38 µM.
As for `COc1ccc(-c2cccc(N(C)c3cc(=O)n(C)c4ccc(C#N)nc34)c2)cc1` [Example 5, 8-((4′-methoxy-[1,1′-biphenyl]-3-yl)(methyl)amino)-5-methyl-6-oxo-5,6-dihydro-1,5-naphthyridine-2-carbonitrile], the IC50 at human DGKα was determined as 0.18 µM; on human DGKζ, 32 µM.
As for `Cc1ccc2c(n1)c(N(C)C1CCCCC1)c(C#N)c(=O)n2C` [Example 13, 4-[cyclohexyl(methyl)amino]-1,6-dimethyl-2-oxo-1,2-dihydro-1,5-naphthyridine-3-carbonitrile], the values for the half-inhibitory concentration (IC50) on human DGKα and on human DGKζ were 0.29 µM and 2.7 µM, respectively.
In the case of `C#CCn1c(=O)c(C#N)c(N(C)C2CCCCC2)c2nc(C#N)ccc21` [Example 17, 8-[cyclohexyl(methyl)amino]-6-oxo-5-(prop-2-yn-1-yl)-5,6-dihydro-1,5-naphthyridine-2,7-dicarbonitrile], the IC50 on human DGKα worked out at 2 µM; on human DGKζ it was 3.6 µM.
Turning to `Cc1ccc(N(C)c2cc(=O)n(C)c3ccc(C#N)nc23)cc1` [Example 20, 5-methyl-8-(methyl(p-tolyl)amino)-6-oxo-5,6-dihydro-1,5-naphthyridine-2-carbonitrile], the IC50 on human DGKα was 0.73 µM; on human DGKζ, 36 µM.
Regarding `Cc1cccc(N(C)c2cc(=O)n(C)c3ccc(C#N)nc23)c1` [Example 22, 5-methyl-8-(methyl(m-tolyl)amino)-6-oxo-5,6-dihydro-1,5-naphthyridine-2-carbonitrile], the IC50 was 1.3 µM at human DGKα and 4.7 µM on human DGKζ.
`CN(c1ccc(F)cc1)c1cc(=O)n(C)c2ccc(C#N)nc12` [Example 23, 8-((4-fluorophenyl)(methyl)amino)-5-methyl-6-oxo-5,6-dihydro-1,5-naphthyridine-2-carbonitrile]: the half-maximal inhibitory concentration (IC50) at human DGKα was determined as 0.11 µM; at human DGKζ it was 4.9 µM.
Regarding `COc1ccc(N(C)c2cc(=O)n(C)c3ccc(C#N)nc23)cc1` [Example 24, 8-((4-methoxyphenyl)(methyl)amino)-5-methyl-6-oxo-5,6-dihydro-1,5-naphthyridine-2-carbonitrile], the IC50 on human DGKα was determined as 0.65 µM; on human DGKζ, 3.2 µM.
As for `Cc1ccccc1N(C)c1cc(=O)n(C)c2ccc(C#N)nc12` [Example 26, 5-methyl-8-(methyl(o-tolyl)amino)-6-oxo-5,6-dihydro-1,5-naphthyridine-2-carbonitrile], the IC50 at human DGKα is 0.96 µM; on human DGKζ it was 37 µM.
On to `CN(c1ccc(F)c(F)c1)c1cc(=O)n(C)c2ccc(C#N)nc12` [Example 28, 8-((3,4-difluorophenyl)(methyl)amino)-5-methyl-6-oxo-5,6-dihydro-1,5-naphthyridine-2-carbonitrile], for which the IC50 was 0.44 µM at human DGKα and 120 µM at human DGKζ.
For the molecule `CN(c1ccc(Cl)cc1)c1cc(=O)n(C)c2ccc(C#N)nc12` [Example 29, 8-((4-chlorophenyl)(methyl)amino)-5-methyl-6-oxo-5,6-dihydro-1,5-naphthyridine-2-carbonitrile], the IC50 worked out at 0.45 µM on human DGKα and 17 µM on human DGKζ.
Regarding `CN(c1nc(=O)n(C)c2ccc(Cl)nc12)C1CCCCC1` [Example 30, 6-chloro-4-(cyclohexyl(methyl)amino)-1-methylpyrido[3,2-d]pyrimidin-2(1H)-one], the values for the IC50 at human DGKα and at human DGKζ were 0.14 µM and 73 µM, respectively.
For `CCCN(CC1CC1)c1nc(=O)n(C)c2ccc(Cl)nc12` [Example 31, 6-chloro-4-((cyclopropylmethyl)(propyl)amino)-1-methylpyrido[3,2-d]pyrimidin-2(1H)-one], in that order: 1 µM and 32 µM.
For `CN(c1ccc(C(F)(F)F)cc1)c1cc(=O)n(C)c2ccc(C#N)nc12` [Example 33, 5-methyl-8-(methyl(4-(trifluoromethyl)phenyl)amino)-6-oxo-5,6-dihydro-1,5-naphthyridine-2-carbonitrile], in that order: 6.1 µM and 4.1 µM.
In the case of `CCN(c1ccc(OC)cc1)c1cc(=O)n(C)c2ccc(C#N)nc12` [Example 34, 8-(ethyl(4-methoxyphenyl)amino)-5-methyl-6-oxo-5,6-dihydro-1,5-naphthyridine-2-carbonitrile], the concentration for half-maximal inhibition (IC50) at human DGKα was 6.5 µM; on human DGKζ, 2.5 µM.
For `Cn1c(=O)cc(N(CC2CC2)c2ccc(F)cc2)c2nc(C#N)ccc21` [Example 35, 8-((cyclopropylmethyl)(4-fluorophenyl)amino)-5-methyl-6-oxo-5,6-dihydro-1,5-naphthyridine-2-carbonitrile], in that order: 0.22 µM and 3 µM.
As to `COc1ccc(N(CC2CC2)c2cc(=O)n(C)c3ccc(C#N)nc23)cc1` [Example 36, 8-((cyclopropylmethyl)(4-methoxyphenyl)amino)-5-methyl-6-oxo-5,6-dihydro-1,5-naphthyridine-2-carbonitrile], the IC50 at human DGKα turned out to be 0.89 µM; on human DGKζ, 0.8 µM.
For `Cn1c(=O)cc(N(CC2CC2)c2ccc(C3CC3)cc2)c2nc(C#N)ccc21` [Example 40, 8-((cyclopropylmethyl)(4-cyclopropylphenyl)amino)-5-methyl-6-oxo-5,6-dihydro-1,5-naphthyridine-2-carbonitrile], in that order: 2.7 µM and 0.19 µM.
`Cn1c(=O)cc(N(CC2CC2)c2ccc(OC(F)(F)F)cc2)c2nc(C#N)ccc21` [Example 41, 8-((cyclopropylmethyl)(4-(trifluoromethoxy)phenyl)amino)-5-methyl-6-oxo-5,6-dihydro-1,5-naphthyridine-2-carbonitrile]: the IC50 on human DGKα was 8.4 µM; on human DGKζ it was 3 µM.
As for `Cn1c(=O)cc(N(CC2CC2)c2ccc(C(F)(F)F)cc2)c2nc(C#N)ccc21` [Example 42, 8-((cyclopropylmethyl)(4-(trifluoromethyl)phenyl)amino)-5-methyl-6-oxo-5,6-dihydro-1,5-naphthyridine-2-carbonitrile], the 50% inhibitory concentration (IC50) at human DGKα was determined as 4.4 µM; on human DGKζ, 1.1 µM.
For `Cn1c(=O)cc(N(CC2CC2)c2cccc(OC(F)(F)F)c2)c2nc(C#N)ccc21` [Example 43, 8-((cyclopropylmethyl)(3-(trifluoromethoxy)phenyl)amino)-5-methyl-6-oxo-5,6-dihydro-1,5-naphthyridine-2-carbonitrile], in that order: 1.1 µM and 26 µM.

For orientation: IC50 means the concentration needed to halve the response being measured.
